Laboratory results reported in publication PMC12738692, “Identification, characterization, and structure-activity relationship of the ASIC3-selective peptide WRPRFa” (Communications Chemistry, 2025).
Residue numbers refer to the chain shown, from its start. Where no end group is shown, it is not given here.

Legend:
human ASIC3 [1] = biological target: T1, human ASIC3 (Homo sapiens, UniProt Q9UHC3); assay: cell-based
T1 construct: CHO cells stably expressing human ASIC3 (NM_004769.1)
T1 sequence (Q9UHC3 1-531): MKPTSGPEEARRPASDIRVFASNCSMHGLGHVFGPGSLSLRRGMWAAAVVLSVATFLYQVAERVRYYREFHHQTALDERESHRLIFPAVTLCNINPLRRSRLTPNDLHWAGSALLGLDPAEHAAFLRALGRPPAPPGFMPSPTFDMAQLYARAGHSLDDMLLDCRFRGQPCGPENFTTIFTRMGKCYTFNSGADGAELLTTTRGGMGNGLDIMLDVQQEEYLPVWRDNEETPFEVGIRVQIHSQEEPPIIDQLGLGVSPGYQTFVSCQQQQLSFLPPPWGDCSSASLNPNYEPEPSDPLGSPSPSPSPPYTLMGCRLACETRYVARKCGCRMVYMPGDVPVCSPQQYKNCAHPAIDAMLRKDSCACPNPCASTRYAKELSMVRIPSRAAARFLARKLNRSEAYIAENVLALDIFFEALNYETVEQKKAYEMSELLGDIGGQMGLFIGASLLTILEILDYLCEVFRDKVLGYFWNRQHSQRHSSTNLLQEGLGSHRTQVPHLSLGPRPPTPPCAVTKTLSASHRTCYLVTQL

human ASIC3 [2] = biological target: T1, human ASIC3; assay: QPatch II peptide concentration-response (I3s/Ipk); format: cell-based; conditions: WT ASIC3, QPatch II, read-out: EC50 (95% CI)
Method: RFamide peptide activity on ASIC3 was measured on the QPatch II platform (Sophion, Ballerup, Denmark) using either a CHO or HEK stable cell line and analyzed with Sophion Analyzer software (version 5.2). Prior to recording, the cells were washed twice in PBS (Gibco, Paisley, UK) and treated with Detachin (Genlantis, San Diego) for 3 min, then resuspended in their respective growth media without serum for a concentration of 2 × 10^6 cells/ml. A minimum of 5 mL of cells was added to the QStirrer, which was placed on the deck of the QPatch II and allowed to incubate at room temperature for a minimum of 20 min.
The bath solution contained 135 mM NaCl, 5 mM KCl, 4.8 mM CaCl2, 1 mM MgCl2, 10 mM HEPES, 10 mM MES, and 10 mM glucose adjusted to pH 7.4 with NaOH. The intracellular solution contained 65 mM CsF, 65 mM CsCl, 10 mM HEPES, 5 mM EGTA, 1 mM MgCl2, adjusted to pH 7.4 with CsOH. Cells were held at -60 mV and ASIC currents were evoked with 3 s applications of pH 6.3 buffer. Peptides were preincubated for at least 2 min. The extracellular solution was changed by dispensing 5 µL of buffer through the ~1.7 µL recording chamber, with a solution switch time of 100 ms, that exchanges 99% of the solution. Signals were acquired at 1 kHz and low-pass filtered at 300 Hz. Experiments performed on QPatch II are specifically indicated in the text.

ASIC3 E78Q = biological target: T2, ASIC3 E78Q (Homo sapiens, UniProt Q9UHC3, E78Q); assay: MPC peptide activity on ASIC3 E78Q mutant (I3s/Ipk, peak current, double mutant cycle); format: cell-based; conditions: read-out: EC50 (95% CI)
T2 construct: human ASIC3 (NM_004769.4); P2A-mCherry reporter (C, cleaved yes); expressed in transfected cells; host or cells: CHO cells (85050302, Sigma), transient transfection
T2 sequence (Q9UHC3 1-531 E78Q): T1 sequence (Q9UHC3 1-531) with E78Q
Method: We individually mutated the four glutamates to glutamine to remove their charge but maintain the side chain structure (Fig. 4C). We tested each mutant by incubating HEK cells stably expressing ASIC3 or CHO cells transfected with mutant ASIC3 with 30 µM WRPRFa before a pH 6.3 acid stimulus.
We then asked which of the two WRPRFa arginines interacts with the E78/E421 pair. […] To this end, we used a double mutant cycle approach to identify coupling between site 2 or site 4 of WRPRFa with the E78/E421 pair. In this case, the double mutant cycle experiment compared the change in potency caused by single mutations in either WRPRFa or ASIC3 against the change in potency caused by simultaneous mutations in WRPRFa and ASIC3. A coupling coefficient (Ω) can be calculated by dividing the product of the WT/WRPRFa potency and double mutant potency by the product of the two single mutant potencies.
The numbering of ASIC3 amino acids is based on RefSeq NP_004760.1. Plasmids were transfected into CHO cells using Lipofectamine 3000 (Thermo) according to the manufacturer’s protocol. Cells were used for patch-clamp recordings 24–48 h after transfection.
(§1) CHO and HEK cells were tested in the whole-cell configuration on MPC platforms using an Axopatch 200B amplifier (Axon Instruments, San Jose, CA) and a Digidata 1322A or Digidata 1440A digitizer (Axon) using pClamp 9.2 or 10.7 (Molecular Devices, San Jose, CA), respectively. When testing transfected cells, red fluorescence from the cleaved mCherry reporter was used to identify cells expressing ASIC3, ASIC131, or ASIC313. For cells expressing transfected ASIC1a or ASIC2a, the green signal from the cleaved eGFP reporter was used. All electrophysiology data were analyzed with Clampfit 11.1 (Molecular Devices).
(§2) For peptide concentration-response curves, Bottom was set to 0 and Top was constrained to ≤ 1 for peptides that approached plateau phase or where I3s/Ipk reached 1. […] For activation- or desensitization-pH curves, Bottom was set to 0 and Top constrained to 1.

ASIC131 = biological target: T3, ASIC131 (Homo sapiens, UniProt Q9UHC3); assay: MPC WRPRFa concentration-response on concatemer ASIC131; format: cell-based; conditions: read-out: lower limit EC50
T3 construct: placing human ASIC1a and human ASIC3 ORFs in tandem; expressed in transfected cells; host or cells: WT CHO cells (85050302, Sigma), transient transfection
T3 sequence (Q9UHC3 1-531): T1 sequence (Q9UHC3 1-531)
Method: as §1, §2

human ASIC3 [3] = biological target: T1, human ASIC3; format: cell-based; conditions: from pH-dependence of activation
human ASIC3 [4] = biological target: T1, human ASIC3; assay: pH-dependence of steady-state desensitization (SSD) of ASIC3; format: cell-based; conditions: conditioning pH 7.0, 30 µM
Method: Lastly, we tested the effect of 30 µM WRPRFa on SSD of ASIC3. First, we sought to determine if, like activation, WRPRFa also changed the pH-dependence of steady-state desensitization for ASIC3. We preconditioned cells at pH 8.0–7.0 for 20 s to elicit SSD, followed immediately by a test pulse to pH 6.3 (Fig. 7F and G) to measure the fraction of channels that were not desensitized. The current evoked by each pH 6.3 test pulse was normalized to the pH 6.3 pulse following pH 8.0 conditioning and plotted against the conditioning pH to determine the pH-dependence of SSD. For untreated cells, the peak current (Ipk) was recorded, and for WRPRFa-treated cells, the current 3 s after the peak (I3s) was used. Untreated channels were completely desensitized at pH 7.0, while the WRPRFa-treated channels reached a plateau at pH 7.0 with about 30% of channels desensitized. […] The 0.11 unit shift is larger than that reported for RPRFa (0.03 unit shift)[30].

## WRPRF-NH2 [WRPRFa]
Human ASIC3 [1]
  EC50: 6.22 µM
Human ASIC3 [1]; 100 µM, MPC
  channels affected: ~90%
Human ASIC3 [2]
  EC50: 6.31 µM
ASIC3 E78Q
  EC50: 0.206 µM
ASIC131
  EC50: ≥ 32.4 µM
Human ASIC3 [3]
  peptide-bound channels activated by pH 6.3: 99.7%
Human ASIC3 [4]
  channels desensitized at plateau: about 30%
